Values quoted from earlier work, collected in US20180147234A1, “COMPOSITIONS AND METHODS FOR TREATMENT OF FIBROMYALGIA” (Luitpold Pharmaceuticals, Inc., priority 2015, published 2018).

Conditions: in vivo

Blood half-life: 10 to 14 h
Substance: polyglucose sorbitol carboxymethyl ether-coated non-stoichiometric magnetite [ferumoxytol]
